Assay [1] concerns the target T1, human glucagon receptor (Homo sapiens (Human), UniProt P47871). Description: Glucagon cAMP Assay (Cisbio cAMP detection). It is filed as cell-based. The conditions noted are these: CHOK1 cells stably transfected with the human glucagon receptor; block of glucagon induced cAMP production; Kb by modified Cheng-Prusoff equation. On the technique in general: Changes in cAMP serve as a functional read-out for many G protein-coupled receptors.

Assay [2] has as its target T1, human glucagon receptor. Description: Human Glucagon SPA Assay (binding of [125I]Glucagon-Cex). The conditions noted are these: membrane from chem-1 cells stably transfected with the human glucagon receptor, Ki by Cheng-Prusoff equation. The protocol:
The Glucagon SPA assay is used to determine the ability of test compounds to block the binding of glucagon-cex to the glucagon receptor. Test compounds are re-suspended and serially diluted in 100% DMSO. 1 μl of test compound at the desired concentrations is spotted into the appropriate wells of 96 well low binding white clear bottom plate (Corning). 1 μl of DMSO is spotted into total binding wells. 1 μl of a known glucagon antagonist at a concentration of 20 μM is added to non specific binding wells. […] All assay ingredients with the exception of test compounds are re-suspended in the following buffer; 50 mM Hepes pH 7.4; 5 mM MgCl2; 1 mM CaCl; 5% glycerol and 0.2% BSA. Following a 6-10 hr incubation at room temperature the amount of hot ligand bound to the cell membranes is determined by reading the plates on a Wallac Trilux radioactive emission detector. Data is analyzed using Pfizer's Data analysis program. IC50 values are then determined from the generated sigmoidal dose response curves. Ki values are calculated using Cheng-Prusoff equation. N is the number of times the compound was assayed.

For 25 molecules, Kb and Ki results are on record in patent publication US8507533B2, “Glucagon receptor modulators” (Pfizer Inc., priority 2011, dated 2013).

pKi: −log10 of the molar value.

T1 sequence (P47871 26-477): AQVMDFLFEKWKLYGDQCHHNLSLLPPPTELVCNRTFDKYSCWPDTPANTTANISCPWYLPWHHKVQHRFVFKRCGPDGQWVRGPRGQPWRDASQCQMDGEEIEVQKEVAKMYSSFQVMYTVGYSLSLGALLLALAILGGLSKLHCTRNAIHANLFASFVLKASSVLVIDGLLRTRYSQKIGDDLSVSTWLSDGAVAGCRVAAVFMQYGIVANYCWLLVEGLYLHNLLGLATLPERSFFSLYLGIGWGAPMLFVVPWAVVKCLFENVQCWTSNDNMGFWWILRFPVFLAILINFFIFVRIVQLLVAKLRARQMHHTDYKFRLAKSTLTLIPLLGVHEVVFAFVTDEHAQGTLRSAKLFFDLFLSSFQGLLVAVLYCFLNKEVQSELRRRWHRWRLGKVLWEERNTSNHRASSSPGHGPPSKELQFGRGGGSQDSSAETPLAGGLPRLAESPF

`Cc1cc(NC(CC(C)C)c2ccc(C(=O)NCCC(=O)O)cc2)cnc1-n1cc(C(F)(F)F)cn1` (racemic) [Example 105, (+/−)-3-(4-(3-methyl-1-(5-methyl-6-(4-(trifluoromethyl)-1H-pyrazol-1-yl)pyridin-3-ylamino)butyl)benzamido)propanoic acid] displayed a Kb in assay [1] of 455 nM. The pKi in assay [2] was 7.16.
In the case of `O=C(O)CCNC(=O)c1ccc(C(Nc2ccc(-n3cc(C(F)(F)F)cn3)nc2)C2CCC2)cc1` (racemic) [Example 106, (+/−)-3-(4-(cyclobutyl(6-(4-(trifluoromethyl)-1H-pyrazol-1-yl)pyridin-3-ylamino)methyl)benzamido)propanoic acid], the Kb in assay [1] turned out to be 187 nM. In addition, in assay [2], the pKi is 7.04.
In the same order, the values of `O=C(O)CCNC(=O)c1ccc(C(CC2CC2)Nc2ccc(-n3cc(C(F)(F)F)cn3)nc2)cc1` (racemic) [Example 107, (+/−)-3-(4-(2-cyclopropyl-1-(6-(4-(trifluoromethyl)-1H-pyrazol-1-yl)pyridin-3-ylamino)ethyl)benzamido)propanoic acid] are 252 nM and 7.15.
For `O=C(O)CCNC(=O)c1ccc(C(Oc2ccc(-n3cc4ccccc4n3)cc2)C2CCCC2)cc1` (racemic) [Example 119, (+/−)-3-(4-((4-(2H-indazol-2-yl)phenoxy)(cyclopentyl)methyl)benzamido)propanoic acid], in that order: 67 nM and 6.99.
For `O=C(O)CCNC(=O)c1ccc(C(Nc2ccc(-n3cnc(C(F)(F)F)c3)nc2)C(F)(F)F)cc1` (racemic) [Example 121, (+/−)-3-(4-(2,2,2-trifluoro-1-(6-(4-(trifluoromethyl)-1H-imidazol-1-yl)pyridin-3-ylamino)ethyl)benzamido)propanoic acid], in that order: 764 nM and 6.53.
In turn, `CC(C)(C)c1cn(-c2ccc(NC(c3ccc(C(=O)NCCC(=O)O)cc3)C3CCCC3)cn2)cn1` (racemic) [Example 122, (+/−)-3-(4-((6-(4-tert-butyl-1H-imidazol-1-yl)pyridin-3-ylamino)(cyclopentyl)methyl)benzamido)propanoic acid] had a Kb in assay [1] of 43 nM. This molecule gave a pKi in assay [2] of 7.34.
In the same order, the values of `CCCC(Oc1cnc(-n2cc(C(F)(F)F)cn2)c(C)c1)c1ccc(C(=O)NCCC(=O)O)cc1` (racemic) [Example 150, (+/−)-3-(4-(1-(5-methyl-6-(4-(trifluoromethyl)-1H-pyrazol-1-yl)pyridin-3-yloxy)butyl)benzamido)propanoic acid] are 1640 nM and 6.35.
In the same order, the values of `Cc1cc(OC(c2ccc(C(=O)NCCC(=O)O)cc2)C2CCC2)cc(C)c1-n1cc(C(F)(F)F)cn1` (racemic) [Example 151, (+/−)-3-(4-(cyclobutyl(3,5-dimethyl-4-(4-(trifluoromethyl)-1H-pyrazol-1-yl)phenoxy)methyl)benzamido)propanoic acid] are 227 nM and 7.69.
For `Cc1cc(OC(c2ccc(C(=O)NCCC(=O)O)cc2)C2CC(C)(C)C2)cc(C)c1-n1cc(C(F)(F)F)cn1` (racemic) [Example 152, (+/−)-3-(4-((3,5-dimethyl-4-(4-(trifluoromethyl)-1H-pyrazol-1-yl)phenoxy)(3,3-dimethylcyclobutyl)methyl)benzamido)propanoic acid], in that order: 301 nM and 7.45.
Molecule `CCCC(Oc1cc(C)c(-n2cc(C(F)(F)F)cn2)c(OC)c1)c1ccc(C(=O)NCCC(=O)O)cc1` (racemic) [Example 153, (+/−)-3-(4-(1-(3-methoxy-5-methyl-4-(4-(trifluoromethyl)-1H-pyrazol-1-yl)phenoxy)butyl)benzamido)propanoic acid] showed a Kb in assay [1] of 225 nM. Moreover, the pKi in assay [2] was 7.49.
In the same order, the values of `O=C(O)CCNC(=O)c1ccc(C(Nc2ccc(-n3cnc(C(F)(F)F)c3)nc2)C2CC(F)(F)C2)cc1` (racemic) [Example 154, (+/−)-3-(4-((3,3-difluorocyclobutyl)(6-(4-(trifluoromethyl)-1H-imidazol-1-yl)pyridin-3-ylamino)methyl)benzamido)propanoic acid] are 629 nM and 6.63.
For `CCCC(Nc1ccc(-n2cnc(-c3ccccc3)c2)nc1)c1ccc(C(=O)NCCC(=O)O)cc1` (racemic) [Example 162, (+/−)-3-(4-(1-(6-(4-phenyl-1H-imidazol-1-yl)pyridin-3-ylamino)butyl)benzamido)propanoic acid], in that order: 55.8 nM and 7.33.
For `Cc1nn(-c2ccc(NC(c3ccc(C(=O)NCCC(=O)O)cc3)C3CCCC3)cn2)cc1Cl` (racemic) [Example 163, (+/−)-3-(4-((6-(4-chloro-3-methyl-1H-pyrazol-1-yl)pyridin-3-ylamino)(cyclopentyl)methyl)benzamido)propanoic acid], in that order: 42.7 nM and 7.18.
The molecule `CCCC(Nc1ccc(-n2cc(-c3ccccn3)cn2)nc1)c1ccc(C(=O)NCCC(=O)O)cc1` (racemic) [Example 164] returned a Kb in assay [1] of 52.4 nM. The molecule also showed a pKi in assay [2] of 6.72.
In the same order, the values of `CCCC(Nc1ccc(-n2cc(-c3ccccc3)cn2)nc1)c1ccc(C(=O)N(C)CCC(=O)O)cc1` (racemic) [Example 165, (+/−)-3-(N-methyl-4-(1-(6-(4-phenyl-1H-pyrazol-1-yl)pyridin-3-ylamino)butyl)benzamido)propanoic acid] are 305 nM and 6.85.
In the same order, the values of `CCCC(Nc1ccc(-n2cc(C3CC3)cn2)nc1)c1ccc(C(=O)NCCC(=O)O)cc1` (racemic) [Example 176, (+/−)-N-[4-(1-{[6-(4-cyclopropyl-1H-pyrazol-1-yl)pyridin-3-yl]amino}butyl)benzoyl]-beta-alanine] are 79.1 nM and 7.00.
In the same order, the values of `O=C(O)CCNC(=O)c1ccc(C(Nc2ccc(-n3cc(C(F)(F)F)cn3)nc2)C2CCOCC2)cc1` (racemic) [Example 177, (±)-3-(4-((tetrahydro-2H-pyran-4-yl)((6-(4-(trifluoromethyl)-1H-pyrazol-1-yl)pyridin-3-yl)amino)methyl)benzamido)propanoic acid] are 2340 nM and 6.36.
In the case of `CC(C)(C)C(Nc1ccc(-n2cc(C(F)(F)F)cn2)nc1)c1ccc(C(=O)NCCC(=O)O)cc1` (racemic) [Example 178, (±)-3-(4-(2,2-dimethyl-1-((6-(4-(trifluoromethyl)-1H-pyrazol-1-yl)pyridin-3-yl)amino)propyl)benzamido)propanoic acid], the Kb in assay [1] was 215 nM. Further, the pKi in assay [2] was 7.43.
In the same order, the values of `CC(C)(C)C(Nc1ccc(-n2cnc(C(F)(F)F)c2)nc1)c1ccc(C(=O)NCCC(=O)O)cc1` (racemic) [Example 181, (±)-3-(4-(2,2-dimethyl-1-((6-(4-(trifluoromethyl)-1H-imidazol-1-yl)pyridin-3-yl)amino)propyl)benzamido)propanoic acid] are 195 nM and 7.06.
For `CCCC(Oc1cc(F)c(-n2cc(C(F)(F)F)cn2)c(F)c1)c1ccc(C(=O)NCCC(=O)O)cc1` (racemic) [Example 184, (+/−)-3-(4-{1-[3,5-difluoro-4-(4-trifluoromethyl-pyrazol-1-yl)-phenoxy]-butyl}-benzoylamino)-propionic acid], in that order: 321 nM and 6.62.
In the same order, the values of `CCCC(Oc1ccc(-n2cc3cc(F)ccc3n2)cc1)c1ccc(C(=O)NCCC(=O)O)cc1` (racemic) [Example 185, (+/−)-3-(4-{1-[4-(5-fluoro-indazol-2-yl)-phenoxy]-butyl}-benzoylamino)-propionic acid] are 175 nM and 6.86.
The molecule `CCCC(Oc1ccc(-n2cc3ccc(F)cc3n2)cc1)c1ccc(C(=O)NCCC(=O)O)cc1` (racemic) [Example 186, (+/−)-3-(4-{1-[4-(6-fluoro-indazol-2-yl)-phenoxy]-butyl}-benzoylamino)-propionic acid] displayed a Kb in assay [1] of 192 nM. The molecule also showed a pKi in assay [2] of 6.76.
For `O=C(O)CCNC(=O)c1ccc(C(Nc2ccc(-n3cnc(C(F)(F)F)c3)nc2)C2CCCC2)cc1` (single isomer, unassigned) [Example 97, 3-(4-(cyclopentyl(6-(4-(trifluoromethyl)-1H-imidazol-1-yl)pyridin-3-ylamino)methyl)benzamido)propanoic acid], in that order: 90.8 nM and 7.03.
For `O=C(O)CCNC(=O)c1ccc(C(Nc2ccc(-n3cnc(C(F)(F)F)c3)nc2)C2CCCC2)cc1` (single isomer, unassigned) [Example 98, 3-(4-(cyclopentyl(6-(4-(trifluoromethyl)-1H-imidazol-1-yl)pyridin-3-ylamino)methyl)benzamido)propanoic acid], in that order: 1060 nM and 5.96.
As for `CCCC(Nc1ccc(-n2cc(C(F)(F)F)cn2)nc1)c1ccc(C(=O)NCCC(=O)O)cc1F` (single isomer, unassigned) [Example 109, 3-(3-fluoro-4-(1-(6-(4-(trifluoromethyl)-1H-pyrazol-1-yl)pyridin-3-ylamino)butyl)benzamido)propanoic acid], in assay [1], the Kb came out at 1710 nM. In assay [2], this molecule gave a pKi of 6.82.

Broadly, the pKi is the Ki on a negative log10 scale, so that one unit is a factor of ten. A lower pKi goes with a large Ki.
